How the values were obtained:
[1] = test system: Arabidopsis thaliana seedlings; assay: Root development of LRI-1 seedlings grown with hormones or hormone signalling inhibitors; type: in vivo
Description: (§1) The expression of the GUS promoter trap was analysed over a developmental time course in uninfected Arabidopsis seedlings that had been grown aseptically on a synthetic growth medium. Prior to analysis, seeds of the transgenic line were surface sterilised by treatment with 70% (v/v) ethanol for 3 minutes and 10% (v/v) commercial bleach for 20 minutes. The seeds were then washed with water and grown on half-strength Murashige and Skoog medium (½MS), supplemented with 10 g/l sucrose. The seedlings were grown in the presence of continuous light at 25° C. Tissue localisation of the GUS enzyme activity was determined at intervals after germination by staining for up to 12 hours at 37° C. in 1 mM 5-bromo-4-chloro-3-indoyl-β-D-glucuronic acid (X-gluc), according to the method of Jefferson et al (1987, EMBO J. 6, 3901-3907), wherein the method was modified by the use of buffer comprising 100 mM sodium phosphate (pH 7.0), 10 mM EDTA, 0.1% (v/v) Triton X-100 and 1 mM potassium ferricyanide to inhibit diffusion of the reaction intermediate. This solution was known as GUS buffer. Excess chlorophyll was removed by soaking the stained tissues in 70% (v/v) ethanol.
(§2) In order to investigate the regulation of the LRI-1 promoter activity, seeds that were homozygous for the LRI-1 gene fusion were germinated aseptically on ½MS10 medium in the presence or absence of hormones. At 9 dpg, the seedlings were subsequently transferred to ½MS10 medium containing either hormones or inhibitors of hormone signalling. Hormone treatments used for the purposes of this invention included, but were not limited to: 0.25, 2.5 or 10 μM 1-naphthaleneacetic acid (NAA, a synthetic auxin); 0.25, 2.5 or 10 μM kinetin (a synthetic cytokinin); 10 or 100 μM silver nitrate (an inhibitor of ethylene signalling); 10 or 100 μM 1-aminocyclopropane-1-carboxylic acid (ACC, a precursor of ethylene); 10 or 100 μM naphthylphthalamic acid (NPA) or 10 μM triiodobenozoic acid (TIBA). NPA and TIBA are inhibitors of polar auxin transport. After growth on medium in the presence or absence of hormones, the seedlings were transferred to a solution of GUS buffer and analysed for GUS activity (indicated by the presence of a blue precipitate).

LRI-1 promoter = assay: GUS histochemical staining of LRI-1 promoter trap seedlings grown with hormones or hormone signalling inhibitors; type: in vivo, Arabidopsis thaliana
Description: as §1, §2

AtPRB2 promoter = assay: GUS activity of 2.47 kb AtPRB2 promoter fragment::GUS transgenic seedlings treated with exogenous auxin; type: in vivo, Arabidopsis thaliana; conditions: 9 dpg on ½MS10, then 2.5 μM for a further 1, 3 or 5 days; except at the root tips
Text: To confirm that the 5′ flanking sequence upstream of the left T-DNA was responsible for the observed GUS activity in line LRI-1, the sequence was cloned and fused to each of the gusA and the GFP reporter genes respectively. The technique of PCR was used to amplify a 1.47 kb genomic fragment immediately upstream of the left T-DNA border. This 1.47 kb fragment was cloned upstream of the respective reporter genes and subsequently introduced into Arabidopsis thaliana plants by the dipping method of Agrobacterium tumefaciens-mediated transformation (Clough and Bent 1998 Plant J. 16, 735-743). In order to determine whether the promoter activity of the cloned sequence pLRI-1 was similar to the promoter region upstream of gene AtPRB2, a 2.47 kb fragment immediately upstream of the gene was cloned. In addition, shorter fragments which were 1 kb, 0.5 kb and 0.2 kb upstream of AtPRB2 were cloned and fused to the gusA reporter gene in the binary vector pΔGUSCIRCE (Casson et al, 2002 Plant Cell 14, 1705-1721), before introduction into plants by Agrobacterium-mediated transformation.
Using a similar approach, the activity of the 2.47 kb AtPRB2 gene fragment was determined in transgenic Arabidopsis lines. […]

[2] = 9 days without compound, then 10 μM for a further 2 days
[3] = grown on 2.5 μM or 10 μM for up to 9 days
[4] = transferred to compound after growth on hormone-free medium, higher concentrations

SMILES: O=C(O)c1cc(I)cc(I)c1I [TIBA, triiodobenozoic acid]
- new lateral root formation [1, 2]: inhibition of new lateral root formation
- lateral root development ([1]; germinated and grown 5 dpg in presence of 10 μM): No lateral root development was observed
- existing GUS activity at previously formed lateral roots (LRI-1 promoter; [2]): remained unaffected
- GUS activity (LRI-1 promoter; grown 5 dpg in presence of 10 μM, some seedlings, at sites where lateral roots would normally emerge): localised but low level GUS activity

SMILES: O=[N+]([O-])[O-].[Ag+] [silver nitrate]
- GUS activity associated with the LRI-1 promoter (LRI-1 promoter; germination and growth for 3, 5 or 9 days in presence of 10 μM): reduction in GUS activity

SMILES: c1coc(CNc2ncnc3[nH]cnc23)c1 [kinetin]
- lateral root formation [1, 3]: no lateral root formation was observed
- lateral root formation [1, 4]: reduction in lateral root formation
- GUS activity (LRI-1 promoter; [3]): detected as normal
- GUS activity (LRI-1 promoter; [4]): detectable as normal

SMILES: NC1(C(=O)O)CC1 [ACC, 1-aminocyclopropane-1-carboxylic acid]
- level of GUS activity (LRI-1 promoter; germinated and grown in presence of 10 μM for up to 9 dpg): reduction in the level of GUS activity
- GUS activity (LRI-1 promoter; grown in presence of 100 μM, stronger expression at the base of lateral roots): induction of GUS activity in the hypocotyl

SMILES: O=C(O)Cc1cccc2ccccc12 [NAA, 1-naphthaleneacetic acid]
- AtPRB2::GUS activity (AtPRB2 promoter): strong induction of AtPRB2::GUS activity throughout the root
- adventitious root development ([1]; after transfer at 9 dpg, 2.5 μM NAA): developed adventitious roots on the hypocotyl
- adventitious root development ([1]; grown for 9 dpg in presence of auxin, roots GUS-positive): adventitious roots developed from the shortened hypocotyl
- root elongation ([1]; seedlings germinated on ½MS10 in presence of NAA, most prominent at 10 μM): dramatic reduction in root elongation
- GUS activity in root (LRI-1 promoter; 9 dpg on ½MS10, then transfer to 0.25, 2.5 or 10 μM NAA for 1, 3 or 5 days, except at the root tip): strong GUS activity throughout the root
- GUS activity in aerial parts (LRI-1 promoter; after transfer at 9 dpg, two lower concentrations of NAA tested): No GUS activity was detected
- GUS activity (LRI-1 promoter; seedlings germinated on ½MS10 in presence of NAA (0.25, 2.5 or 10 μM), most prominent at 10 μM): strong throughout the root of the seedling
- LRI-1::GUS expression (LRI-1 promoter; seedlings treated with 2.5 μM exogenous auxin): induction of LRI-1::GUS expression throughout the Arabidopsis root
